In US20140234868A1, “USE FOR GLYCOLIPOPROTEIN GINTONIN, ISOLATED AND IDENTIFIED FROM GINSENG, AS A NATURAL MEDICAL-PLANT DERIVED LIGAND” (KONKUK UNIVERSITY INDUSTRIAL COOPERATION CORP., priority 2011, published 2014):

Experiments:
endogenous CaCC = test: Endogenous Ca2+-activated channel (CaCC) activation in Xenopus oocytes; assay type: cell-based, Xenopus laevis; conditions: Kil6425 10 μM; U73122 1 μM; 2-APB 100 μM; BAPTA 100 μM 3 h
[1] = system: NMDA receptors (NR1 and NR2); test: NMDA receptor activity in Xenopus oocytes, two-electrode voltage clamp; assay type: cell-based; conditions: Kil6425 10 μM, 2-APB 100 μM, BAPTA 100 μM 3 h
Protocol: cDNAs of NMDA receptor subunits (NR1 and NR2) were employed (Zheng et al., J Neurosci. 17, 8676-8686, 1997). cDNAs (100 ng/40 nl) corresponding to respective NMDA receptor subunits (NR1 and NR2) were injected into animal or vegetal poles of oocytes by use of a […] (VWR Scientific, USA) and incubated for 4-5 days after injection (Zheng et al., J Neurosci. 17, 8676-8686, 1997).
(§1) Xenopus laevis frogs were obtained from Xenopus I (Ann Arbor, Mich.). Their care and handling were in accordance with the highest standards of institutional guidelines. To isolate oocytes, the frogs were operated on under anesthesia with an aerated solution of 3-aminobenzoic acid ethyl ester. Oocytes were separated by treatment with collagenase and agitation for two hours in a Ca^2+-free medium containing 82.5 mM NaCl, 2 mM KCl, 1 mM MgCl2, 5 mM HEPES, 2.5 mM sodium pyruvate, 100 units/ml penicillin and 100 μg/ml streptomycin.
(§2) Stage V-VI oocytes were collected and stored in ND96 (96 mM NaCl, 2 mM KCl, 1 mM MgCl2, 1.8 mM CaCl2, and 5 mM HEPES, pH 7.4) supplemented with 50 μg/ml gentamicin. This oocyte containing solution was maintained at 18° C. with continuous gentle shaking while the ND96 medium was changed to a fresh one every day.
Two-electrode voltage-clamp recordings were obtained from individual oocytes placed in a small Plexiglas net chamber (5 ml). Electrophysiological experiments were performed using microelectrodes filled with 3 M KCl (resistance of 0.2-0.7 MΩ) and an Oocyte Clamp amplifier (OC-725C; Warner Instrument, Hamden, Conn.). For physiological recordings of NMDA receptor activity, oocytes were first perfused with Mg^2+-free ND96 (mM: 96 NaOH, 2 KOH, 0.3 CaCl2, 5 HEPES pH 7.6 with methanesulfonic acid). Then, the oocytes were clamped at −60 mV holding potential, followed by recoding NMDA currents (induced by administering […]) (Zheng et al., J Neurosci. 17, 8676-8686, 1997; Chang and Kuo, J Neurosci. 28, 1546-1556, 2008).

LPA2 receptor = LPA2 receptor (Homo sapiens, UniProt Q9HBW0); test: Intracellular free Ca2+ (Fura-2AM) in LPA2-expressing B103 cells; assay type: cell-based; set-up: host or cells: B103 rat neuroblastoma cells; conditions: LPA2-expressing B103 cells
Text: LPA family receptors are endogenous to cells of most organs. B103 rat neuroblastoma cells, known as LPA receptor-null cells (Valentine et al., Biochim Biophys Acta 1780. 597-605) were transiently transfected with a plasmid (vector) carrying one of genes coding for LPA1(edg-2), LPA2(edg-4), LPA3(edg-7), LPA4, LPA5 and LPA6 receptors or a plasmid carrying none of them (empty vector). Two or three days after transfection, the cells are suspended, and made permeable. Then, the permeable cells are treated with Fura-2AM, a fluorescent dye binding to calcium, and then with gintonin, followed by spectrofluorephotometry to examine whether gintonin induces an increase in intracellular free Ca^2+ level.
(1) preparing large quantities of plasmids carrying respective LPA family receptor genes and an empty plasmid carrying none of them through amplification and purification (maxi-preparation); (2) verifying the expression of LPA receptors wherein B103 cells are transfected with haematoglutin (HA)-tagged LPA receptors, and then subjected to Western blotting analysis using an anti-HA primary antibody and a horseradish peroxidase (HRP)-conjugated secondary antibody to develop a color; (3) verifying the expression of LPA receptors wherein B1-3 cells are transfected with haematoglutin (HA)-tagged LPA receptors, and then subjected to confocal laser microscopy using an anti-HA antibody and a fluorescence dye Cy3-conjugated secondary antibody; (4) transfecting the empty plasmid and each of the plasmids carrying LPA family receptor genes into B103 cells; (5) treating the transfected B103 cells with trypsin (0.05% trypsin with EDTA, w/v) 2-3 days post-transfection, to give a cell suspension; (6) culturing the suspended B103 cells with Fura-2AM (2.5 μM); and (7) treating the suspended B103 cells with gintonin and quantifying a change in intracellular free Ca^2+ level in a cuvette by spectrofluorephotometry using Fura-2AM.
Human LPA (lysophosphatidic acid) receptor subtypes, orphan GPCRs (G protein coupled receptors) and plasmids carrying GPCRs were purchased from Missouri S&T resource Center (www.cDNA.org).
The transient transfection of LPA receptor subtypes was carried out with the aid of Lipofectamine 2000 of Invitrogen. A plasmid (10.8 μg) carrying each LPA receptor (LPA1, LPA2, LPA3, LPA4, LPA5, and LPA6) was transfected into B103 cells grown in 10-cm dishes, and incubated for 2 days prior for use in experiments.
In this Example, gintonin, or ginsenoside Rb1 or Rg1 was examined for its ability to induce a transient increase of [Ca^2+]i in Fura-2AM-loaded B103 cells which were transfected with LPA receptors and in Fura-2AM-loaded B103 cells which were not transfected with LPA receptors. […]

BKCaK+ channels = test: BKCa K+ channel activity in Xenopus oocytes, two-electrode voltage clamp; assay type: cell-based; conditions: 2-APB 100 μM, BAPTA-AM, PMA 1 μM
Protocol: as §1
as §2, with “changed with” for “changed to”
Two-electrode voltage-clamp recordings were obtained from individual oocytes placed in a small Plexiglas net chamber (5 ml). Electrophysiological experiments were performed using microelectrodes filled with 3 M KCl (resistance of 0.2-0.7 MΩ) and an Oocyte Clamp amplifier (OC-725C; Warner Instrument, CT, USA) to record BKc K^+ channel activity at room temperature (Choi et al., Mol Cells 31, 133-140, 2011). For physiological recordings of BKCaK^+ channel activity, oocytes were first perfused with a Cl^−- and Ca^2+-free solution (mM: 96 NaOH, 2 KOH, 8 Mg-gluconate, 5 HEPES, 5 EGTA, pH 7.4 with methanesulfonic acid) supplemented with 500 μM anthracene-9-carboxylic acid, a Cl^− channel blocker, to block endogenous Cl-channels (Lu et al., J. Biol. Chem. 265, 16190-16194.1990). Then, the oocytes were clamped at −80 mV holding potential, followed by step depolarization from the holding potential to +40 mV at regular intervals of […] for 400 ms to record outward currents.

mice [2] = test: Passive avoidance test, scopolamine-caused long-term memory impairment; assay type: in vivo, mouse; conditions: scopolamine alone (0.9 mg/kg, i.p.); test session 24 h after learning
Protocol: ICR male mice (25-28 g), purchased from Oriental Bio (Seoul, Korea), were bred according to the guideline of the Institutional Animal Care and Use Committee of Konkuk University, and subjected to passive avoidance test to examine memory maintenance impairment and the protection of gintonin against memory impairment according to the method of Yang et al. (Yang et al., Biol Pharm Bull 32, 1710-1715, 2009).
A passive avoidance test was performed in a training chamber which was divided into two compartments (20×20×20 cm in size, each) separated by an automatically moving guillotine door (5×5 cm): one compartment was lighted while the other remained dark where metal rods installed in a lattice pattern on the bottom so as to deliver an electrical foot shock (Gemini Avoidance System, San Diego, USA).
For an acquisition trial, a mouse was first placed in the lighted compartment, facing away from the dark compartment and allowed to explore for 10 sec. After 10 sec, the guillotine door was opened and the mouse was allowed to explore freely. When the mouse entered the dark compartment with all four paws according to its habit, the guillotine door was closed, and a footshock (0.5 mA, 3 sec duration) was delivered. The latency time to enter the dark compartment was recorded (from the time the door was lifted). 120 min before experimentation, gintonin (25, 50, 100 mg/kg, p.o) was administered while tacrine (10 mg/kg, p.o) was used as a positive control. Memory impairment was induced by injecting scopolamine (0.9 mg/kg, i.p.) 30 min after gintonin or tacrine administration (Araujo et al., Prog Neuropsycopharmcol Biol Psychiatry 29, 411-422, 2005). For a negative control, a physiological saline was used.
24 Hours after the learning session, an experiment was performed without injecting gintonin. The mouse was positioned again in the lighted compartment. After 10 sec of acclimation, the latency time to enter the dark compartment was recorded (from the time the door was lifted).

mice [3] = test: Water maze test, scopolamine-caused spatial cognition impairment; assay type: in vivo, mouse; conditions: scopolamine alone (0.9 mg/kg i.p.)
Protocol: The Moths water maze set up contained a round water pool (45 cm deep with a diameter of 90 cm) filled with milk-mixed water (22±1° C.) to a depth of 30 cm. It was placed in a dark, sound-shielded room in which various visual cues were established. A white platform (6 cm in diameter, 29 cm in height) was inside the pool, with the top thereof 1 cm below the water surface in the center of one quadrant of the maze
On day 1, the mice were trained to swim for 60 sec. Subsequently, the training was conducted four times a day for four consecutive days, with the platform inside the pool. When the mouse reached the platform, it was allowed to sit on the platform only for 10 sec. If the failed in reaching the platform within 60 sec, it was guided to reach the platform and stay for 10 sec thereon. Afterwards, the mouse was returned back to the home cage and allowed to dry its body under an IR lamp. The time interval between trials was 30 sec.
The time to reach the hidden platform was recorded in each trial using a video camera-based Ethovision System (Nodulus, Wageningen, the Netherlands).
For each training trial, the mouse was placed into the pool at one quadrant at positions which were different day by day. One day after the final training trial, the mouse was evaluated. In this regard, after the platform was removed, the mouse was allowed to swim for 60 sec in search for the platform, and the time to swim in the quadrant where the platform was located was recorded. Gintonin (25, 50, or 100 mg/kg, p.o.) in physiological saline was administered 1 hr before test, every day. Tacrine (10 mg/kg, p.o.) was used as a positive control. Memory impairment was induced by scopolamine (0.9 mg/kg i.p.) 30 min after gintonin administration. For a negative control, only physiological saline was administered.
An examination was made of simple spatial reasoning. To this end, while the mice were allowed to swim in the absence of the rescue platform in the pool, the time period during which the mice swam in the quadrant where the rescue platform had been located was recorded.

LPA2 receptor, sequence (Q9HBW0 whole entry): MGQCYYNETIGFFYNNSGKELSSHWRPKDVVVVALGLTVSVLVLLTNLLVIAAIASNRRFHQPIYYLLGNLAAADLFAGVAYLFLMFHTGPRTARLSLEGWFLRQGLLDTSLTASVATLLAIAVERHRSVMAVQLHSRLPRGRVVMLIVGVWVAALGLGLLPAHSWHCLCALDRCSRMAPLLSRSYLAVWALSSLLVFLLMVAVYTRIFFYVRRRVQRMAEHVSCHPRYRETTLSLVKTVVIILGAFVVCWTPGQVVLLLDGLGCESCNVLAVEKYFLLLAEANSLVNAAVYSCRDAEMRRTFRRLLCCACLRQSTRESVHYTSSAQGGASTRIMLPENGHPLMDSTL

NCCOB(c1ccccc1)c1ccccc1 [2-APB]
effect on gintonin-induced CaCC activation (endogenous CaCC): suppressed gintonin-induced CaCC activation
effect on NMDA-induced inward current ([1]; U73122 1 μM): did not block NMDA-induced inward current
effect on gintonin-induced NMDA receptor activation ([1]; gintonin 1 μg/ml, U73122, U73343 1 μM, genistein 10 μM, PP2, PP3 30 μM): blocked gintonin-induced NMDA receptor activation
effect on gintonin-induced intracellular calcium increase (LPA2 receptor): blocked
effect on gintonin-induced BKCaK+ channel activation (BKCaK+ channels; Kil6425 10 μM, U73122, U73343 1 μM): blocked gintonin-induced BKCaK^+ channel activation
effect on ginsenoside Rg3-induced BKCaK+ channel activity (BKCaK+ channels; U73122 1 μM): not blocked

CN1[C@@H]2C[C@@H](OC(=O)[C@H](CO)c3ccccc3)C[C@H]1[C@@H]1O[C@@H]12 [scopolamine, reference compound]
latency time (mice [2]): 23.07 ± 1.95 s
swimming time in the quadrant where the platform had been located (mice [3]): 13.47 ± 1.86 s
